In publication PMC4540712, “Development of a clickable bimodal fluorescent/PET probe for in vivo imaging” (EJNMMI Research, 2015):
Starred links: 1 amine or outer side, 2 acyl side, 3 side chain; linkers in the order of their positions; H or OH if unused. Non-standard residues stand in square brackets, D forms with d. Residues, ends and D or L forms follow the SMILES beside them. *: point of attachment. BODIPY(FL) = CC1=CC(C)=[N+]2C1=Cc1ccc(CCC(=O)*)n1[B-]2(F)F; X1 = O=C(CCc1cn(CCOCCOCCOCCN[*:1])nn1)[*:2]; Sta = CC(C)C[C@H](N)[C@@H](O)CC(=O)O; X2 = O=C(CN1CCC(N[*:1])CC1)[*:2]

Assays:
stability in human serum = type: in vitro ADME; conditions: 37 °C, after 60 min of incubation, time points 0, 15, 30, 45, 60 min, fluorescence read-out
Experimental: (§1) The binding of BODIPY-BBN 5 toward GRP receptor overexpressing PC-3 cells was evaluated in confocal live-cell imaging (Fig. 4a). After incubation of BODIPY-BBN 5 (10 nM, 30 min), cells were treated with blue whole cell stain (5 min) and washed with PBS. […] We also confirmed the binding affinity of BODIPY-BBN 5 using [^125I-Tyr^4]bombesin in a competitive binding assay (Fig. 4b). […] We then determined the stability of our imaging tracer in human serum (37 °C) at pre-determined time points showing >90 % intact fluorescent imaging agent after 60 min of incubation (Additional file 1: Figure S6).
Figure S6: Percent intact fluorescent ^19F-BODIPY-BBN in human serum at different time points (0, 15, 30, 45, and 60 min) after incubation at 37 °C.

[1] = molecular target: T1, GRP receptor overexpressing PC-3 cells (Homo sapiens, UniProt P30550); assay: confocal live-cell imaging of uptake and blocking in PC-3 cells; type: cell-based; conditions: 37 °C, 30 min
T1 construct: host or cells: PC-3 (human prostate cancer cell line)
T1 sequence (P30550 whole entry): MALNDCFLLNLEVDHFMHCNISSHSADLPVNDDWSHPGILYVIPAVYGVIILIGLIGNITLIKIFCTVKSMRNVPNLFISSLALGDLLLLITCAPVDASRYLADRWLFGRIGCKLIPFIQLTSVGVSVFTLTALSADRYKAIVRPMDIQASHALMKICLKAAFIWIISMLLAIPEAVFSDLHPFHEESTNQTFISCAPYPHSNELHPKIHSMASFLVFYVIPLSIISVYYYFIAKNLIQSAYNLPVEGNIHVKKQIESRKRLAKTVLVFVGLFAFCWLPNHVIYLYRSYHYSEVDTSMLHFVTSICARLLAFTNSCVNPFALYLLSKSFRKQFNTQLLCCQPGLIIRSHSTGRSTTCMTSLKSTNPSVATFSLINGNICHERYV
Experimental: To determine BODIPY-BBN uptake in vitro, PC-3 cells (1.0 × 10^4 per well) were seeded in a two-well chamber slide (Nunc™ Lab-Tek™ II Chamber Slide™ System) containing growth media (1 mL) and incubated at 37 °C for 24 h. To study the uptake of BODIPY-BBN, PC-3 cells were incubated with 5 (10 nM in PBS, 37 °C for 30 min). At the same time blocking studies were performed. PC-3 cells were pre-incubated with RM2 (1000 nM in PBS, 37 °C for 5 min) before incubation with BODIPY-BBN (10 nM in PBS, 37 °C for 30 min). After washing with media (1.0 mL), blue whole cell stain was added and incubated at room temperature for 5 min. The cells were washed with PBS (3 × 1.0 mL), living cells were imaged using an inverted confocal microscope (Leica TCS SP5 II), and data were analyzed with Fiji.
as §1

With `Cc1cc(C)n2c1C=C1C=CC(CCC(=O)NCCOCCOCCOCCn3cc(CCC(=O)NC4CCN(CC(=O)N[C@H](Cc5ccccc5)C(=O)N[C@@H](CCC(N)=O)C(=O)N[C@@H](Cc5c[nH]c6ccccc56)C(=O)N[C@@H](C)C(=O)N[C@H](C(=O)NCC(=O)N[C@@H](Cc5c[nH]cn5)C(=O)N[C@@H](CC(C)C)[C@@H](O)CC(=O)N[C@@H](CC(C)C)C(N)=O)C(C)C)CC4)nn3)=[N+]1[B-]2(F)F` [BODIPY-BBN 5] ({BODIPY(FL)}-[X1][X2][dF]QWAVGH[Sta]L-NH2) the “intact fluorescent imaging agent in human serum” value (stability in human serum) was > 90%, the “fluorescent signal after blocking (GRP receptor specificity)” value ([1]; PC-3 cells pre-incubated with 100-fold excess of unlabeled GRP receptor antagonist (1000 nM, 5 min), then 10 nM probe) was “complete suppression of green fluorescent signal” and the “binding in confocal live-cell imaging” value ([1]; PC-3 cells, 10 nM in PBS, green fluorescence) was “antagonist-specific binding”.
